In brackets after ≈: the same amount, converted by molar mass.
Tests used:
[1] = Water solubility by UV–Vis spectrophotometry (phase solubility with cyclodextrins); assay type: physicochemical; conditions: 25 °C, thermodynamic from solid, 298.15 K, without cyclodextrin, read-out: Solubility in H2O
Method: Spectrophotometric measurements were performed using a SPECORD 50 single-beam UV–Vis spectrophotometer (Analyst Jena, Thuringia, Germany). The calibration lines of the compounds tested were determined for the concentration range of 3.0 × 10^−6 M to 1 × 10^−4 M (Figure 21). The molar extinction coefficients for 3, 3a, and 5 were determined experimentally in an aqueous ethanol solution; the relevant maximum wavelengths are presented in Table 9. The influence of α-cyclodextrins, β-cyclodextrins and HP-β-cyclodextrins on the solubility of the tested ligands in water was evaluated in three measurement series. Briefly, excess ligand was introduced into closed Eppendorff tubes containing α-CD, β-CD or HP-β-CD solutions, at concentrations ranging from 1 to 90 mM for α-CD and HP-β-CD and from 1 to 15 mM for β-CD. The test tubes were stored for 10 days at a temperature of 298.15 K until equilibrium was achieved. After this time, the solutions were centrifuged using a Microcentrifuge MPW-55 at 13,000 rpm for five minutes. For testing, a clear solution was taken from above the sediment and diluted appropriately so that the spectrum was within the operating range of the spectrophotometer.

[2] = Isothermal titration calorimetry (ITC) of inclusion complex formation; assay type: physicochemical; conditions: DMSO, 25 °C
Method: Measurements were carried out using a MicroCal VP-ITC100 microcalorimeter equipped with a 1400 μL measurement cell. All titrations were carried out under isothermal conditions at 25 degrees C in DMSO solution, which was used as a solvent. The mixing speed during the measurements was 351 rpm. The 0.2 mM solution of the ligand (3, 3a and 5) located in the measurement cell was titrated with the cyclodextrin solution located in the syringe. Each measurement consisted of 50 injections of cyclodextrin with a volume of 5 uL and a concentration of 5 mM. The interval between individual injections was 300 s. The effect of direct interaction of the ligand with CD was calculated by subtracting the thermal effects of diluting 5 mM cyclodextrin in a pure solvent. The dilution effect of the 0.2 mM ligand solution was negligible. The results obtained were processed in the MicroCall Origin 7 software. Using a single active site model (ITC Tutorial Guide), the stability constant K of the resulting complex, its stoichiometry n and thermodynamic parameters that describe the ongoing process were determined, viz., enthalpy (ΔH), Gibbs free energy (ΔG) and entropy (ΔS).

Ishikawa = assay: Superoxide anion generation, DHE probe; assay type: cell-based, human; conditions: IC50 concentration, 24 h
Method: (§1) The level of superoxide anion (O2^•−) was determined by microplate spectrofluorimetry with dihydroethidium (hydroethidine, DHE) (Life Technologies, Carlsbad, CA, USA), which is the most commonly used fluorogenic probe for monitoring the intracellular production of superoxide anion O2^•− [41]. […] Thanks to this shift, DHE can be used as a sensitive probe for cellular ROS. The reaction between superoxide and DHE generates a highly specific red fluorescent product, 2-hydroxyethidium (2-OH-E^+).
(§2) The cells were seeded in black 96-well fluorometric microplates at a density of 10 × 10^3 cells per well. […] After incubation, the medium was removed, the cell monolayer in the wells was washed twice with HBSS (140 mM NaCl, 5 mM KCl, 0.8 mM MgCl2, 1.8 mM CaCl2, 1 mM Na2HPO4, 10 mM HEPES and 1% glucose) and 50 μL of DHE solution in HBSS was added to each well (final probe concentration 5 μmol/L). Cells were incubated with the probe for 30 min in the dark in an incubator (37 °C), and then fluorescence was measured. The measurement was performed at the following excitation and fluorescence emission wavelengths: λex = 498 nm/λem = 582 nm. Fluorescence measurements were made on a Perkin-Elmer LS-5B spectrofluorometer (MA, USA). Fluorescence intensity values for control cells were arbitrarily set as 100%. The results are presented as percentages of control cell values, calculated relative to the fluorescence intensity of the controls (100%): sample fluorescence was calculated as Δf in relation to the controls.

MCF-7 = assay: Superoxide anion generation, DHE probe; assay type: cell-based, human; conditions: IC50 concentration, 24 h
Method: as §1, §2

RBCs = assay: Red blood cells lysis assay; assay type: cell-based, human; conditions: 24 h
Method: The experiments on human blood were performed in accordance with Polish national guidelines, and the study protocols were approved by the Bioethics Committee of the Medical University of Lodz, Poland: approval no (RNN/104/20/KE). The blood samples were obtained from healthy donors at the Blood Donation Centre in Lodz. The procedure for […] for erythrotoxicity studies is given in a previous paper. The influence of the synthesized compounds, together with a reference compound on RBC membrane integrity, was performed by lysis assay, described elsewhere. Briefly, 2% RBC suspension in 0.9% NaCl was incubated at 37 °C for 24 h with the tested compounds at concentrations of 100 µmol/L, 50 µmol/L, 25 µmol/L, 10 µmol/L and 1 µmol/L. The samples were centrifuged at 3000 rpm for 10 min, and the absorbance of the supernatant was measured at 550 nm. […] A sample containing saline solution represented the spontaneous hemolysis of RBCs (control). The experiments were conducted using at least three different biological materials (n = 3). […] Additionally, erythrocyte morphology was evaluated using a phase contrast Opta-Tech inverted microscope at 400× magnification.

[3] = system: extrinsic coagulation pathway; assay: Prothrombin time (PT); assay type: biochemical, human; conditions: 1–100 µmol/L
Method: Basic coagulation parameters were determined using Bio-Ksel reagents (Grudziądz, Poland): APTT reagent, calcium chloride, Bio-Ksel PT plus reagent (tromboplastin and solvent) and thrombin (3.0 UNIH/mL) for TT experiments. The methods were calibrated and the coefficient of variation (PT, APTT, TT experiments) was calculated using a calibrator (Bio-Ksel, Grudziadz, Poland), normal plasma (Bio-Ksel, Grudziądz, Poland) and water for injection (Polpharma, Gdańsk, Poland).
Control samples consisting of distilled water and methanol were tested. All methods were validated using Bio-Ksel normal plasma, which was dissolved in water for injection (Polpharma, Gdańsk, Poland). The reference values for each test are as follows: PT: 9.7–13.8 s; INR: 0.9–1.2; APTT: 28.2–42.3 s; TT: 11.0–16.5 s for 3.0 UNIH/mL of thrombin.

[4] = concentration range of 1–25 µmol/L
[5] = concentrations of 50 µmol/L and 100 µmol/L

| solubility at 10 days [1] [µM] | K (formation constant) ([2]; HP-β-cyclodextrin) | n (stoichiometry) ([2]; HP-β-cyclodextrin) | ΔG ([2]; HP-β-cyclodextrin) | ΔH ([2]; HP-β-cyclodextrin) [kcal/mol] | ΔS ([2]; HP-β-cyclodextrin) [J mol^−1K^−1] | K (formation constant) ([2]; α-cyclodextrin) | n (stoichiometry) ([2]; α-cyclodextrin) | ΔG ([2]; α-cyclodextrin) | ΔH ([2]; α-cyclodextrin) [kcal/mol] | ΔS ([2]; α-cyclodextrin) [J mol^−1K^−1] | K (formation constant) ([2]; β-cyclodextrin) | n (stoichiometry) ([2]; β-cyclodextrin) | ΔH ([2]; β-cyclodextrin) [kcal/mol] | ΔS ([2]; β-cyclodextrin) [J mol^−1K^−1] | prothrombin time (PT), difference compared to controls (in words) [3] | Structure (SMILES) | greater superoxide anion level relative to control (DHE probe) (Ishikawa) | greater superoxide anion level relative to control (DHE probe) (MCF-7) | impact on % hemolysis (in words) (RBCs; [4]) | impact on % hemolysis (in words) (RBCs; [5]) | further results |
| --- | --- | --- | --- | --- | --- | --- | --- | --- | --- | --- | --- | --- | --- | --- | --- | --- | --- | --- | --- | --- | --- |
| 1.5 (≈ 0.469 µg/mL) | 5.12 × 10^3 ± 410 | 0.93 ± 0.10 | −21,172.4 J mol^−1 | -0.119 ± 0.0151 | 69.3 | 1.39 × 10^3 ± 120 | 0.83 ± 0.17 | −17,940.2 J mol^−1 | -0.049 ± 0.00741 | 59.5 | 2.32 × 10^3 ± 220 | 0.93 ± 0.11 | -0.0411 ± 0.012 | 62.5 | No statistically significant differences | O=C1/C(=C/c2ccccc2)C(c2ccccc2)Oc2ccccc21 (centres unmarked) [Compound 5] | ~30% | ~30% | did not show a statistically significant impact | statistically significant increase in % hemolysis |  |
| 1.29 (≈ 0.442 µg/mL) | 6.88 × 10^3 ± 430 | 1.03 ± 0.10 | −21,902.2 J mol^−1 | -0.235 ± 0.0191 | 70.2 | 2.30 × 10^3 ± 180 | 0.90 ± 0.13 | −19,188.6 J mol^−1 | -0.092 ± 0.011 | 63.1 | 3.68 × 10^3 ± 230 | 0.99 ± 0.11 | -0.2476 ± 0.021 | 64.8 | No statistically significant differences | COc1cccc(/C=C2/C(=O)c3ccccc3OC2c2ccccc2)c1 (centres unmarked) [Compound 3] | approximately 20% | approximately 20% | did not show a statistically significant impact | statistically significant increase in % hemolysis | ΔG ([2]; β-cyclodextrin): −20,353.7 J mol^−1 |
